Experimental data published in US10941157B2, “Pesticidal compositions and uses thereof” (Gilead Apollo, LLC, priority 2015, dated 2021).
Values after ≈ are worked out from the molar mass of the structure shown. Read-outs that look alike come from different tables or passages of the source.

Assays:
Assay type in all cases: cell-based
Botrtyis cinerea (Bc) = test: In vitro pathogen growth inhibition assay, Bc; settings: 48 h
How it was run: (§1)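 Value reported is the compound concentration reaching ≥90% growth inhibition, from OD readings at 24 and 48 h after blank subtraction, confirmed visually. Inoculum was spores diluted in 17% V8 medium, except Rs, using 1.5 mm mycelial plugs in ¼ PDB; actual compound concentration corrected via OD600.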

[1] = system: Collectotrichum graminicola (Cg); test: In vitro pathogen growth inhibition assay, Cg; settings: 48 h
How it was run: as §1

Diplodia maydis (Dm) = test: In vitro pathogen growth inhibition assay, Dm; settings: Stenocarpella maydis, 48 h
How it was run: (§2)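 Spores in 17% V8 liquid medium, or 1.5 mm Rs mycelial plugs in ¼ PDB, incubated with compound; final concentration checked by OD600 for precipitation. OD readings at 24 and 48 h, blank-subtracted, plus visual ratings; value is concentration giving ≥90% growth inhibition.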

[2] = system: Fusarium moniliforme (Fm); test: In vitro pathogen growth inhibition assay, Fm; settings: Fusarium verticillioides
How it was run: as §1

[3] = system: Fusarium virguliforme (Fv); test: In vitro pathogen growth inhibition assay, Fv
How it was run: as §2

[4] = system: Phytophthora capsici (Pc); test: In vitro pathogen growth inhibition assay, Pc; settings: 48 h
How it was run: as §2

Rhizoctonia solani (Rs) = test: In vitro pathogen growth inhibition assay, Rs (mycelial plugs); settings: Rhizoctonia solani, 48 h
How it was run: as §2

Septoria tritici (St) = test: In vitro pathogen growth inhibition assay, St; settings: Zymoseptoria tritici, 48 h
How it was run: as §1

[5] = ≥90% growth inhibition, 48 hours, vs 2% DMSO control, read-out: Compound Concentration (ppm) sufficient for ≥90% inhibition of Bc
[6] = ≥90% growth inhibition, 48 hours, vs 2% DMSO control, read-out: Compound Concentration (ppm) sufficient for ≥90% inhibition of Cg
[7] = ≥90% growth inhibition, 48 hours, vs 2% DMSO control, read-out: Compound Concentration (ppm) sufficient for ≥90% inhibition of Dm
[8] = ≥90% growth inhibition, 48 hours, vs 2% DMSO control, read-out: Compound Concentration (ppm) sufficient for ≥90% inhibition of Fm
[9] = ≥90% growth inhibition, 48 hours, vs 2% DMSO control, read-out: Compound Concentration (ppm) sufficient for ≥90% inhibition of Fv
[10] = ≥90% growth inhibition, 48 hours, vs 2% DMSO control, read-out: Compound Concentration (ppm) sufficient for ≥90% inhibition of Pc
[11] = ≥90% growth inhibition, mycelial plugs, 48 hours, vs 2% DMSO control, read-out: Compound Concentration (ppm) sufficient for ≥90% inhibition of Rs
[12] = ≥90% growth inhibition, 48 hours, vs 2% DMSO control, read-out: Compound Concentration (ppm) sufficient for ≥90% inhibition of St
[13] = concentration sufficient to ≥90% inhibition of growth, 48 hours vs 2% DMSO control, read-out: Compound Concentration (ppm) for ≥90% inhibition, Bc
[14] = concentration sufficient to ≥90% inhibition of growth, 48 hours vs 2% DMSO control, read-out: Compound Concentration (ppm) for ≥90% inhibition, Cg
[15] = concentration sufficient to ≥90% inhibition of growth, 48 hours vs 2% DMSO control, read-out: Compound Concentration (ppm) for ≥90% inhibition, Dm
[16] = concentration sufficient to ≥90% inhibition of growth, 48 hours vs 2% DMSO control, read-out: Compound Concentration (ppm) for ≥90% inhibition, Fm
[17] = concentration sufficient to ≥90% inhibition of growth, 48 hours vs 2% DMSO control, read-out: Compound Concentration (ppm) for ≥90% inhibition, Fv
[18] = concentration sufficient to ≥90% inhibition of growth, 48 hours vs 2% DMSO control, read-out: Compound Concentration (ppm) for ≥90% inhibition, Pc
[19] = concentration sufficient to ≥90% inhibition of growth, 48 hours vs 2% DMSO control, read-out: Compound Concentration (ppm) for ≥90% inhibition, Rs
[20] = concentration sufficient to ≥90% inhibition of growth, 48 hours vs 2% DMSO control, read-out: Compound Concentration (ppm) for ≥90% inhibition, St

Row | SMILES | IC90 (Botrtyis cinerea (Bc); [5]) | IC90 [1, 6] | IC90 (Diplodia maydis (Dm); [7]) | IC90 [2, 8] | IC90 [3, 9] | IC90 [4, 10] | IC90 (Rhizoctonia solani (Rs); [11]) | IC90 (Septoria tritici (St); [12]) | IC90 (Botrtyis cinerea (Bc); [13]) | IC90 [1, 14] | IC90 (Diplodia maydis (Dm); [15]) | IC90 [2, 16] | IC90 [3, 17] | IC90 [4, 18] | IC90 (Rhizoctonia solani (Rs); [19]) | IC90 (Septoria tritici (St); [20])
1 | CCOC(=O)c1sc2c(c1C)c(=O)n(C(C)(C)C(=O)N1CCCC1)c(=O)n2C[C@H](O)c1cc(F)ccc1OC [Compound I-224] | 2 µg/mL (≈ 3.56 µM) | 10 µg/mL (≈ 17.8 µM) | > 50 µg/mL | 2 µg/mL (≈ 3.56 µM) | 2 µg/mL (≈ 3.56 µM) | > 50 µg/mL | 0.08 µg/mL (≈ 0.142 µM) | > 50 µg/mL | – | – | – | – | – | – | – | –
2 | CCNC(=O)C(C)(C)n1c(=O)c2c(C)c(-n3cccn3)sc2n(C[C@H](OCCC#N)c2ccccc2OC)c1=O [Compound I-232] | 10 µg/mL (≈ 17.7 µM) | 10 µg/mL (≈ 17.7 µM) | 50 µg/mL (≈ 88.5 µM) | 2 µg/mL (≈ 3.54 µM) | 0.4 µg/mL (≈ 0.708 µM) | > 50 µg/mL | 2 µg/mL (≈ 3.54 µM) | > 50 µg/mL | – | – | – | – | – | – | – | –
3 | CCNC(=O)C(C)(C)n1c(=O)c2c(C)c(-n3cccn3)sc2n(C[C@H](OCCC#N)c2cc(F)ccc2OC)c1=O [Compound I-235] | 2 µg/mL (≈ 3.43 µM) | 2 µg/mL (≈ 3.43 µM) | ≥ 2 µg/mL | 0.4 µg/mL (≈ 0.687 µM) | 2 µg/mL (≈ 3.43 µM) | > 50 µg/mL | 2 µg/mL (≈ 3.43 µM) | > 50 µg/mL | – | – | – | – | – | – | – | –
4 | COc1ccccc1[C@H](Cn1c(=O)n([C@H](C)C(=O)N(C)C(C)C)c(=O)c2c(C)c(-n3nccn3)sc21)OCCC#N [Compound I-238] | 2 µg/mL (≈ 3.45 µM) | 10 µg/mL (≈ 17.3 µM) | 10 µg/mL (≈ 17.3 µM) | 2 µg/mL (≈ 3.45 µM) | 10 µg/mL (≈ 17.3 µM) | > 50 µg/mL | 10 µg/mL (≈ 17.3 µM) | > 50 µg/mL | – | – | – | – | – | – | – | –
5 | COc1ccccc1[C@H](Cn1c(=O)n([C@H](C)C(=O)N(C)C(C)C)c(=O)c2c(C)c(-n3cccn3)sc21)OCCC#N [Compound I-242] | 2 µg/mL (≈ 3.46 µM) | 2 µg/mL (≈ 3.46 µM) | 2 µg/mL (≈ 3.46 µM) | 0.4 µg/mL (≈ 0.691 µM) | 2 µg/mL (≈ 3.46 µM) | > 50 µg/mL | 2 µg/mL (≈ 3.46 µM) | ≥ 50 µg/mL | – | – | – | – | – | – | – | –

More lines, now with the values ahead:

Row | IC90 (Botrtyis cinerea (Bc); [5]) | IC90 [1, 6] | IC90 (Diplodia maydis (Dm); [7]) | IC90 [2, 8] | IC90 [3, 9] | IC90 [4, 10] | IC90 (Rhizoctonia solani (Rs); [11]) | IC90 (Septoria tritici (St); [12]) | IC90 (Botrtyis cinerea (Bc); [13]) | IC90 [1, 14] | IC90 (Diplodia maydis (Dm); [15]) | IC90 [2, 16] | IC90 [3, 17] | IC90 [4, 18] | IC90 (Rhizoctonia solani (Rs); [19]) | IC90 (Septoria tritici (St); [20]) | SMILES
6 | 10 µg/mL (≈ 16.6 µM) | > 50 µg/mL | > 10 µg/mL | 2 µg/mL (≈ 3.33 µM) | ≥ 50 µg/mL | > 50 µg/mL | 10 µg/mL (≈ 16.6 µM) | > 50 µg/mL | – | – | – | – | – | – | – | – | CCOC(=O)c1sc2c(c1C)c(=O)n([C@@H](C)C(=O)N1CCCC1)c(=O)n2C[C@H](OCCC#N)c1cc(F)ccc1OC [Compound I-225]
7 | 2 µg/mL (≈ 3.33 µM) | 2 µg/mL (≈ 3.33 µM) | ≥ 2 µg/mL | 0.08 µg/mL (≈ 0.133 µM) | 2 µg/mL (≈ 3.33 µM) | > 50 µg/mL | 0.08 µg/mL (≈ 0.133 µM) | > 50 µg/mL | – | – | – | – | – | – | – | – | CCOC(=O)c1sc2c(c1C)c(=O)n([C@H](C)C(=O)N1CCCC1)c(=O)n2C[C@H](OCCC#N)c1cc(F)ccc1OC [Compound I-226]
8 | – | – | – | – | – | – | – | – | 50 µg/mL (≈ 91.5 µM) | > 50 µg/mL | > 50 µg/mL | 10 µg/mL (≈ 18.3 µM) | > 50 µg/mL | > 50 µg/mL | 0.4 µg/mL (≈ 0.732 µM) | > 50 µg/mL | CCOC(=O)c1sc2c(c1C)c(=O)n([C@@H](C)C(N)=O)c(=O)n2C[C@H](OCCC#N)c1cc(F)ccc1OC [Compound I-227]
9 | – | – | – | – | – | – | – | – | 10 µg/mL (≈ 18.3 µM) | > 50 µg/mL | > 50 µg/mL | 10 µg/mL (≈ 18.3 µM) | > 50 µg/mL | > 50 µg/mL | 2 µg/mL (≈ 3.66 µM) | > 50 µg/mL | CCOC(=O)c1sc2c(c1C)c(=O)n([C@H](C)C(N)=O)c(=O)n2C[C@H](OCCC#N)c1cc(F)ccc1OC [Compound I-228]
10 | 2 µg/mL (≈ 3.32 µM) | 10 µg/mL (≈ 16.6 µM) | ≥ 10 µg/mL | 0.4 µg/mL (≈ 0.664 µM) | 0.4 µg/mL (≈ 0.664 µM) | > 50 µg/mL | 0.08 µg/mL (≈ 0.133 µM) | ≥ 10 µg/mL | – | – | – | – | – | – | – | – | CCOC(=O)c1sc2c(c1C)c(=O)n([C@@H](C)C(=O)N(C)C(C)C)c(=O)n2C[C@H](OCCC#N)c1cc(F)ccc1OC [Compound I-230]
11 | 10 µg/mL (≈ 16.8 µM) | 2 µg/mL (≈ 3.35 µM) | 10 µg/mL (≈ 16.8 µM) | 2 µg/mL (≈ 3.35 µM) | 50 µg/mL (≈ 83.8 µM) | > 50 µg/mL | 2 µg/mL (≈ 3.35 µM) | ≥ 50 µg/mL | – | – | – | – | – | – | – | – | COc1ccc(F)cc1[C@H](Cn1c(=O)n([C@@H](C)C(=O)N(C)C(C)C)c(=O)c2c(C)c(-n3cccn3)sc21)OCCC#N [Compound I-243]
